Publication PMC12111632, “Expression, purification and preliminary pharmacological characterization of the Plasmodium falciparum membrane-bound pyrophosphatase type 1” (PLOS One, 2025)
Where a name gives a salt, the structure may show the parent alone. Read-outs that look alike come from different tables or passages of the source.

What was measured:
PfPPase-VP1 = PfPPase-VP1 (Plasmodium falciparum, UniProt Q8IKR1); experiment: biochemical
Protocol: The activity of PfPPase-VP1 was determined using a molybdenum blue colorimetric activity assay in 96-well plate format to measure the amount of phosphate production, as previously described for TmPPase but with modifications to pH (5.2–10) and temperature conditions (20–70°C) as described below. To determine the optimal pH for PfPPase-VP1 activity, 5 μL of 2.5 mg/mL total membrane protein was added to the reaction mixture (60 mM of various buffers (below) with pHs ranging from 5.2–10.0, 3 mM MgCl2, 100 mM KCl, and 10 mM NaCl, 100 mM NaF, 5 μM Gramicidin D), to a final volume of 40 μL. Buffers were trisodium-citrate (pH 5.2), MES (pH 6.5), Tris-HCl (pH 6.8, 7.5, 8.0, and 8.8) and glycine-NaOH (pH 10.0). A control sample was prepared by heating the membrane faction at 90 °C for 5 min to inactivate the enzyme. The reaction mixture was incubated at 30 °C for 5 min in a 96-well heating block. After incubation, 10 µl of 2 mM sodium pyrophosphate (PPi) was added, mixed, and incubated for 10 min. The reaction was stopped by adding 60 μL of premixed solution A (0.3 g ascorbic acid in 10 mL of 0.5 M cold HCl) and solution B (70 mg of ammonium heptamolybdate tetrahydrate in 1 mL of cold milli-Q water) and incubating on ice for 1 h. Finally, 90 μL sodium arsenite solution (5 g sodium arsenite, 5 g trisodium citrate dihydrate and 5 mL of iced-acetic acid in 250 mL milli-Q water) was added and incubated at RT for 30 min. Absorbance was measured at 860 nm on a MultiSkan Go UV/Vis spectrophotometer (Thermo Scientific). The specific activity of PfPPase-VP1 in the membrane was calculated using our previously published formula [23]. 60 mM Tris-Cl (pH 7.5) buffer was then selected for optimization of the reaction temperature (RT, 30 °C, 40 °C, 50 °C, 60 °C and 70 °C) by repeating the assay as described above. […] For the activity assay of purified PfPPase-VP1, 0.15 μg of the enzyme in the optimized detergent solution was mixed with 0.8 μL of 20 mg/mL liposomes (soybean lecithin) and then reaction buffer (60 mM Tris-HCl (pH 7.5), 3 mM MgCl2, 100 mM KCl, and 10 mM NaCl) was added to a total volume of 40 μL. The reaction mixture was preheated at 50 °C for 5 min before adding 10 µl of 2mM PPi and mixing. The catalytic reaction was run for 45 min at 50 °C, and the phosphate production was determined as described above. IDP, a known mPPase competitive inhibitor [35], was used as a positive control to validate the assay for inhibitor screening.
The 35 compounds used in this study were pre-dissolved in dimethyl sulfoxide (DMSO) at concentrations of 25–50 mM.
IDP was used in parallel as a positive control. Each concentration of the test compounds was tested in triplicate.

TmPPase [1] = target: T1, TmPPase (Thermotoga maritima, UniProt Q9S5X0); experiment: TmPPase inhibition assay (96-well molybdenum blue colorimetric phosphate assay); format: biochemical; set-up: made in house
T1 sequence (Q9S5X0 1-726): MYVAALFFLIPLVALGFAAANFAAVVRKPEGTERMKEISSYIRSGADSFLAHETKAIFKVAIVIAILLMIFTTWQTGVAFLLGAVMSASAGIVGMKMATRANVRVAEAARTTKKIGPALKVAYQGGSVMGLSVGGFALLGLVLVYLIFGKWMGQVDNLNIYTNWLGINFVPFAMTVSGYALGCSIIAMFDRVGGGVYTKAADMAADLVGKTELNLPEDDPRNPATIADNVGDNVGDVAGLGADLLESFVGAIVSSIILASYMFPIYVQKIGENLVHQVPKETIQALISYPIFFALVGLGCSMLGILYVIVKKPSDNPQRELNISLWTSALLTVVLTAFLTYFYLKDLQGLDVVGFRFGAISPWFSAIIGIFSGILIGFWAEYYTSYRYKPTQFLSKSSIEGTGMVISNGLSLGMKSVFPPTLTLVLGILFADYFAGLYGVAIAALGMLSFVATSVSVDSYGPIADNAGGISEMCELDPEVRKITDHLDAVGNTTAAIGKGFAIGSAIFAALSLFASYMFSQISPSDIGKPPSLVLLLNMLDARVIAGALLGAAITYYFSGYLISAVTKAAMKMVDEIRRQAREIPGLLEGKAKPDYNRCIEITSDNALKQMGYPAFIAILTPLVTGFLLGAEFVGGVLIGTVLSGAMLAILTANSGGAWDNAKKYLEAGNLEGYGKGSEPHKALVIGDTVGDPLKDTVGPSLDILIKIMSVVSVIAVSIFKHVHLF

TmPPase [2] = target: T1, TmPPase; set-up: made in house; host or cells: S. cerevisiae; conditions: cited from earlier work
[3] = purified PfPPase-VP1 reconstituted in liposomes, Tris-HCl pH 7.5, 50 °C, 45 min, triplicate, interval given
[4] = interval given, read-out: IC50 (TmPPase)

Chain of PfPPase-VP1 (Q8IKR1 entry or part of it): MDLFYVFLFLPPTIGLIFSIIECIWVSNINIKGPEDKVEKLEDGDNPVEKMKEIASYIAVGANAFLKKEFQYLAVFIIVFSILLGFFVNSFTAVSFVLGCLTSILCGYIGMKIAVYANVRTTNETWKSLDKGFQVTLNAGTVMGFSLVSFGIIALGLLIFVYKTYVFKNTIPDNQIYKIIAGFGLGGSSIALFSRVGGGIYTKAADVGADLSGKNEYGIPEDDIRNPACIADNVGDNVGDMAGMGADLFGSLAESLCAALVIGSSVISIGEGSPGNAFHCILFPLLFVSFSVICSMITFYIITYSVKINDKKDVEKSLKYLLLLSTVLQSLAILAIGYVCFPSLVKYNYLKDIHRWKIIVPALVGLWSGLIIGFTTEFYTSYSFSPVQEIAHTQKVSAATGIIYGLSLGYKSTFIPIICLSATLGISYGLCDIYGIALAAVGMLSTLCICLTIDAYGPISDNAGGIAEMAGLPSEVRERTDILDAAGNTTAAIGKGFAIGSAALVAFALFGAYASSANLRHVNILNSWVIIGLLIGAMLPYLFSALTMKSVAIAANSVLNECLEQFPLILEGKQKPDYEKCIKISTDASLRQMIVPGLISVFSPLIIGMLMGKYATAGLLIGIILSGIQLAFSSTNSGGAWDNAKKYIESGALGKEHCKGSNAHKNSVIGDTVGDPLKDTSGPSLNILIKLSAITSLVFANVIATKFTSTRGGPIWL

Compound	IC50 (PfPPase, μM) (PfPPase-VP1; [3])	IC50 (TmPPase, μM) (TmPPase [1])	further results
C[C@@H]1CC[C@H]2[C@@H](C)C(=O)O[C@@H]3O[C@@]4(C)CC[C@@H]1[C@]32OO4 [Compound 1, Artemisinin]	Inactive	Inactive	–
N=C(N)c1ccc(-c2ccc(-c3ccc(C(=N)N)cc3)o2)cc1 [Compound 2, Furamidine dihydrochloride]	–	Inactive	IC50 (PfPPase-VP1): 190 µM
N=C(N)c1ccc(OCCCCCOc2ccc(C(=N)N)cc2)cc1 [Compound 3, Pentamidine isethionate]	–	Inactive	–
CC1(C)N=C(N)N=C(N)N1c1ccc(Cl)cc1 [Compound 4, Cycloguanil hydrochloride]	Inactive	Inactive	–
OC(c1cc(C(F)(F)F)nc2c(C(F)(F)F)cccc12)C1CCCCN1 (stereo not drawn) [Compound 5, Mefloquine hydrochloride]	–	Inactive	–
[H]/N=C(\N/C(=N/[H])Nc1ccc(Cl)cc1)NC(C)C [Compound 6, Proguanil hydrochloride]	Inactive	Inactive	–
C[C@H]1c2cccc(O)c2C(=O)C2=C(O)[C@]3(O)C(=O)C(C(N)=O)=C(O)[C@@H](N(C)C)[C@@H]3[C@@H](O)[C@@H]21 [Compound 7, Doxycyline monohydrate]	Inactive	Inactive	–
O=C1C(O)=C([C@H]2CC[C@H](c3ccc(Cl)cc3)CC2)C(=O)c2ccccc21 [Compound 8, Atovaquone]	Inactive	Inactive	–
O=CN(O)CCCP(=O)(O)O [Compound 9, Fosmidomycin]	Inactive	Inactive	–
CC(=O)N(O)CCCP(=O)(O)O [Compound 10, FR900098 (sodium salt)]	Inactive	Inactive	–
CCN(CC)CCCC(C)Nc1ccnc2cc(Cl)ccc12 (stereo not drawn) [Compound 11, Chloroquine]	Inactive	Inactive	–
CCN(CC)CCCC(C)Nc1ccnc2cc(Cl)ccc12 (stereo not drawn) [Compound 12, Chloroquine diphospate salt]	Inactive	Inactive	–
CCN(CCO)CCCC(C)Nc1ccnc2cc(Cl)ccc12 (stereo not drawn) [Compound 13, Hydroxychloroquine sulfate]	Inactive	Inactive	–
CCN(CCO)CCCC(C)Nc1ccnc2cc(Cl)ccc12 (stereo not drawn) [Compound 14, Hydroxychloroquine]	Inactive	Inactive	–
CCOC(=O)c1cc(-c2ccc(OC)c(S(=O)(=O)N3CCCSc4ccccc43)c2)on1 [Compound 15]	Inactive	–	–
COc1cc(C2c3c(-c4cc(Cl)c(C)cc4O)n[nH]c3C(=O)N2Cc2ccccc2)ccc1O (stereo not drawn) [Compound 16]	Inactive	–	IC50 (TmPPase [2]; [4]): 33 µM
Cc1cc(C)cc(-c2cc(C(=O)Oc3ccccc3Br)no2)c1 [Compound 17]	Inactive	–	IC50 (TmPPase [2]; [4]): 6.7 µM
CC(C)(C)c1cc(-c2cc(C(=O)Oc3ccccc3Br)no2)cc(C(C)(C)C)c1 [Compound 18]	Inactive	–	IC50 (TmPPase [2]; [4]): 10 µM
C=Cc1cc2nc(C(=O)O)cc(-c3cc(C)cc(C)c3)n2n1 [Compound 19]	–	–	IC50 (TmPPase [2]; read-out: IC50 against TmPPase): < 20 µM
C=Cc1cc2nc(C(=O)Oc3ccccc3Br)cc(-c3cc(C)cc(C)c3)n2n1 [Compound 20]	–	–	IC50 (TmPPase [2]; read-out: IC50 against TmPPase): < 20 µM
O=P(O)(O)NP(=O)(O)O [IDP, imidodiphosphate]	–	–	IC50 (PfPPase-VP1; purified PfPPase-VP1 reconstituted in liposomes, Tris-HCl pH 7.5, 50 °C, 45 min, triplicate, interval given, read-out: IC50 (PfPPase)): 175 µM
